Measurements published in the NIST ThermoML archive (doi:10.1016/j.jct.2019.04.017).

Assay: xn = mol fraction of the nth substance listed
Conditions: 96 kPa, Liquid; for electrical conductivity: Frequency=0.001 MHz, Alternating current cell with electrodes; for viscosity: Cone and plate viscometry

C1CCC2=NCCCN2CC1 [1,8-diaza-7-bicyclo[5.4.0]undecene] + OCC(O)CO
Conditions	electrical conductivity, 308.1 K [S/m]	electrical conductivity, 313.1 K [S/m]	electrical conductivity, 318.1 K [S/m]	viscosity, 318.1 K [mPa·s]
x1 = 0.0501	–	–	–	294.1
x1 = 0.0502	–	0.0666	0.0795	–
x1 = 0.0909	–	–	–	345.9
x1 = 0.0914	–	0.0785	0.0971	–
x1 = 0.1	–	–	0.0947	343
x1 = 0.1115	0.0567	0.0761	0.0924	–
x1 = 0.1266	0.0543	0.0699	0.0877	–
x1 = 0.1667	–	–	–	359.5
x1 = 0.1672	0.0468	0.0613	0.0735	–
x1 = 0.2	0.0398	0.0497	0.0601	370.7
x1 = 0.2153	–	–	–	376.5
x1 = 0.2306	–	–	–	355.8
x1 = 0.2504	0.0263	0.0335	0.041	–
x1 = 0.287	0.0194	0.0245	0.0303	–
x1 = 0.3059	–	–	–	341.7
x1 = 0.3333	–	–	–	316.5
x1 = 0.3338	0.0137	0.0158	0.0192	–
x1 = 0.4003	0.00571	0.00702	0.00895	–
x1 = 0.4011	–	–	–	279.6
x1 = 0.5	0.00128	0.00169	0.00221	223.8
x1 = 0.5632	–	–	–	169.8
x1 = 0.5656	0.000502	0.000644	–	–
x1 = 0.625	–	–	–	109
x1 = 0.6255	0.000251	0.00034	–	–
x1 = 0.75	0.000346	–	–	43.75
x1 = 0.753	0.000346	0.000447	–	–
x1 = 0.8333	0.000614	–	–	20.71
x1 = 0.8334	0.000614	0.00076	–	–
x1 = 0.9094	0.000788	0.000915	–	–
x1 = 0.95	0.000791	0.000857	–	–
x1 = 0.975	0.000668	0.000719	–	–
x1 = 1	0.00032	0.000356	–	6.08
